Results from ChEMBL document CHEMBL1201862, “PubChem BioAssay data set” (2004).
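A five-concentration, 48-hour dose response in 96-well plates underlies each endpoint, interpolated linearly between surrounding concentrations. At the GI50, growth is halved.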 The source made the active and inactive calls. No stated cut-off is given here; in the data, active = GI50 up to about 1.1 µM and inactive = higher.

Assays:
Assay in all cases: DTP human tumour cell line panel, 48 h
UACC-62 = tested on: UACC-62
OVCAR-8 = tested on: OVCAR-8
OVCAR-3 = tested on: OVCAR-3
MOLT-4 = tested on: MOLT-4
LOX IMVI = tested on: LOX IMVI
SK-OV-3 = tested on: SK-OV-3
K562 = tested on: K562
ACHN = tested on: ACHN
IGROV-1 = tested on: IGROV-1
M14 = tested on: M14
A498 = tested on: A498
CAKI-1 = tested on: CAKI-1
RPMI-8226 = tested on: RPMI-8226
HCC 2998 = tested on: HCC 2998
NCI-H460 = tested on: NCI-H460
HOP-18 = tested on: HOP-18
KM12 = tested on: KM12
HCT-15 = tested on: HCT-15
KM-20L2 = tested on: KM-20L2
U-251 = tested on: U-251
DMS-114 = tested on: DMS-114
UO-31 = tested on: UO-31
LXFL 529 = tested on: LXFL 529
A549 = tested on: A549
HOP-62 = tested on: HOP-62
HL-60 = tested on: HL-60
NCI-H522 = tested on: NCI-H522
RXF 631 = tested on: RXF 631
HCT-116 = tested on: HCT-116
OVCAR-4 = tested on: OVCAR-4
COLO 205 = tested on: COLO 205
NCI-H226 = tested on: NCI-H226
SK-MEL-2 = tested on: SK-MEL-2
TK-10 = tested on: TK-10
HT-29 = tested on: HT-29
SF-268 = tested on: SF-268
DLD-1 = tested on: DLD-1
SNB-78 = tested on: SNB-78
786-0 = tested on: 786-0
SNB-19 = tested on: SNB-19
SK-MEL-5 = tested on: SK-MEL-5
SW-620 = tested on: SW-620
OVCAR-5 = tested on: OVCAR-5
SN12C = tested on: SN12C
UACC-257 = tested on: UACC-257
EKVX = tested on: EKVX
Malme-3M = tested on: Malme-3M
SNB-75 = tested on: SNB-75
NCI-H23 = tested on: NCI-H23
SK-MEL-28 = tested on: SK-MEL-28
M19-MEL = tested on: M19-MEL
DMS-273 = tested on: DMS-273
CCRF-CEM = tested on: CCRF-CEM
SF-295 = tested on: SF-295
SF-539 = tested on: SF-539
RXF 393 = tested on: RXF 393

With `O=c1cccccc1NCCCCNc1cccccc1=O` the GI50 (UACC-62) was 72.6 µM (inactive), the GI50 (OVCAR-8) was > 100 µM (inactive) and the GI50 (OVCAR-3) was > 100 µM (inactive). The GI50 (MOLT-4) was 62.1 µM (inactive), the GI50 (LOX IMVI) was > 100 µM (inactive) and the GI50 (SK-OV-3) was > 100 µM (inactive). The GI50 (K562) was > 100 µM (inactive), the GI50 (ACHN) was 54.8 µM (inactive) and the GI50 (IGROV-1) was > 100 µM (inactive). The GI50 (M14) was 55.7 µM (inactive), the GI50 (A498) was > 100 µM (inactive) and the GI50 (CAKI-1) was 83 µM (inactive). The GI50 (RPMI-8226) was 43.4 µM (inactive), the GI50 (HCC 2998) was 85.3 µM (inactive) and the GI50 (NCI-H460) was > 100 µM (inactive). For the same compound, the GI50 (HOP-18) was > 100 µM (inactive), the GI50 (KM12) was > 100 µM (inactive) and the GI50 (HCT-15) was 84.7 µM. For the same compound, the GI50 (KM-20L2) was > 100 µM (inactive), the GI50 (U-251) was > 100 µM (inactive) and the GI50 (DMS-114) was 31.3 µM (inactive). For the same compound, the GI50 (UO-31) was 42 µM (inactive), the GI50 (LXFL 529) was 48.8 µM (inactive) and the GI50 (A549) was 59.2 µM (inactive). The GI50 (HOP-62) was > 100 µM (inactive), the GI50 (HL-60) was 49.7 µM (inactive) and the GI50 (NCI-H522) was 83.8 µM (inactive). The GI50 (RXF 631) was > 100 µM (inactive), the GI50 (HCT-116) was > 100 µM (inactive) and the GI50 (OVCAR-4) was 50.8 µM (inactive). For the same compound, the GI50 (COLO 205) was > 100 µM (inactive), the GI50 (NCI-H226) was 73.6 µM (inactive) and the GI50 (SK-MEL-2) was > 100 µM (inactive). For the same compound, the GI50 (TK-10) was > 100 µM (inactive), the GI50 (HT-29) was > 100 µM (inactive) and the GI50 (SF-268) was 41.4 µM (inactive). The GI50 (DLD-1) was 57.3 µM (inactive), the GI50 (SNB-78) was > 100 µM (inactive) and the GI50 (786-0) was > 100 µM (inactive). For the same compound, the GI50 (SNB-19) was 61 µM (inactive), the GI50 (SK-MEL-5) was 30 µM (inactive) and the GI50 (SW-620) was 67.6 µM (inactive). The GI50 (OVCAR-5) was > 100 µM (inactive), the GI50 (SN12C) was > 100 µM (inactive) and the GI50 (UACC-257) was > 100 µM (inactive). The GI50 (EKVX) was > 100 µM (inactive), the GI50 (Malme-3M) was 29.4 µM (inactive) and the GI50 (SNB-75) was > 100 µM (inactive). The GI50 (NCI-H23) was 67.8 µM (inactive), the GI50 (SK-MEL-28) was 71.1 µM (inactive) and the GI50 (M19-MEL) was 83.2 µM (inactive). For the same compound, the GI50 (DMS-273) was > 100 µM (inactive), the GI50 (CCRF-CEM) was > 100 µM (inactive) and the GI50 (SF-295) was > 100 µM (inactive).
For `c1ccc2cc3n[se]nc3cc2c1`, the GI50 (UACC-62) was > 100 µM (inactive), the GI50 (OVCAR-8) was > 100 µM (inactive) and the GI50 (MOLT-4) was 75.5 µM (inactive). For the same compound, the GI50 (LOX IMVI) was > 100 µM (inactive), the GI50 (SK-OV-3) was > 100 µM (inactive) and the GI50 (K562) was > 100 µM (inactive). For the same compound, the GI50 (ACHN) was > 100 µM (inactive), the GI50 (IGROV-1) was 48.8 µM (inactive) and the GI50 (M14) was > 100 µM (inactive). The GI50 (CAKI-1) was > 100 µM (inactive), the GI50 (RPMI-8226) was > 100 µM (inactive) and the GI50 (HCC 2998) was 38.9 µM (inactive). The GI50 (HOP-18) was < 0.01 µM (active), the GI50 (KM12) was > 100 µM (inactive) and the GI50 (HCT-15) was over 100 µM. For the same compound, the GI50 (KM-20L2) was > 100 µM (inactive), the GI50 (U-251) was > 100 µM (inactive) and the GI50 (DMS-114) was > 100 µM (inactive). The GI50 (UO-31) was 55.8 µM (inactive), the GI50 (SF-539) was 37.6 µM (inactive) and the GI50 (LXFL 529) was > 100 µM (inactive). The GI50 (A549) was 52.7 µM (inactive), the GI50 (RXF 393) was > 100 µM (inactive) and the GI50 (HL-60) was > 100 µM (inactive). The GI50 (NCI-H522) was > 100 µM (inactive), the GI50 (RXF 631) was 10.4 µM (inactive) and the GI50 (OVCAR-4) was > 100 µM (inactive). For the same compound, the GI50 (COLO 205) was > 100 µM (inactive), the GI50 (SK-MEL-2) was > 100 µM (inactive) and the GI50 (TK-10) was > 100 µM (inactive). For the same compound, the GI50 (HT-29) was > 100 µM (inactive), the GI50 (SF-268) was > 100 µM (inactive) and the GI50 (DLD-1) was 62.4 µM (inactive). For the same compound, the GI50 (SNB-78) was > 100 µM (inactive), the GI50 (SNB-19) was 81.1 µM (inactive) and the GI50 (SK-MEL-5) was 68.1 µM (inactive). For the same compound, the GI50 (SW-620) was > 100 µM (inactive), the GI50 (OVCAR-5) was > 100 µM (inactive) and the GI50 (SN12C) was 91.8 µM (inactive). The GI50 (UACC-257) was > 100 µM (inactive), the GI50 (EKVX) was > 100 µM (inactive) and the GI50 (Malme-3M) was > 100 µM (inactive). For the same compound, the GI50 (SNB-75) was 56.9 µM (inactive), the GI50 (NCI-H23) was 39.7 µM (inactive) and the GI50 (SK-MEL-28) was > 100 µM (inactive). The GI50 (DMS-273) was > 100 µM (inactive), the GI50 (CCRF-CEM) was 32.5 µM (inactive) and the GI50 (SF-295) was 39.4 µM (inactive).
